Laboratory results as given in the NIST ThermoML archive (doi:10.1016/j.tca.2013.08.031).

Experiment: molar heat capacity at constant volume
Conditions: Fluid (supercritical or subcritical phases), Vacuum adiabatic calorimetry

CCC(C)O (stereo unspecified) [butan-2-ol]
Conditions	molar heat capacity at constant volume [J/K/mol]
462.76 K, Mass density=598.18 kg/m3	276.1
462.95 K, Mass density=598.18 kg/m3	279.07
463.15 K, Mass density=598.18 kg/m3	277.81
463.35 K, Mass density=598.18 kg/m3	282.48
463.45 K, Mass density=598.18 kg/m3	292.34
463.74 K, Mass density=598.18 kg/m3	258.76
463.93 K, Mass density=598.18 kg/m3	219.18
464.13 K, Mass density=598.18 kg/m3	217.62
464.33 K, Mass density=598.18 kg/m3	217.32
464.53 K, Mass density=598.18 kg/m3	218.88
464.72 K, Mass density=598.18 kg/m3	216.73
464.92 K, Mass density=598.18 kg/m3	217.62
465.11 K, Mass density=598.18 kg/m3	217.55
465.31 K, Mass density=598.18 kg/m3	218.07
467.66 K, Mass density=598.18 kg/m3	219.18
467.86 K, Mass density=598.18 kg/m3	218.88
468.05 K, Mass density=598.18 kg/m3	218.44
468.25 K, Mass density=598.18 kg/m3	219.84
468.45 K, Mass density=598.18 kg/m3	219.92
469.23 K, Mass density=598.18 kg/m3	222.44
469.42 K, Mass density=598.18 kg/m3	222.36
481.46 K, Mass density=538.17 kg/m3	279.66
481.66 K, Mass density=538.17 kg/m3	284.78
481.85 K, Mass density=538.17 kg/m3	283.59
482.04 K, Mass density=538.17 kg/m3	284.55
482.24 K, Mass density=538.17 kg/m3	286.41
482.43 K, Mass density=538.17 kg/m3	287.44
482.62 K, Mass density=538.17 kg/m3	289.22
482.81 K, Mass density=538.17 kg/m3	288.41
483.01 K, Mass density=538.17 kg/m3	289
483.2 K, Mass density=538.17 kg/m3	291.15
483.39 K, Mass density=538.17 kg/m3	289.82
483.58 K, Mass density=538.17 kg/m3	289.59
483.78 K, Mass density=538.17 kg/m3	289.59
487.62 K, Mass density=538.17 kg/m3	282.7
487.81 K, Mass density=538.17 kg/m3	280.25
488 K, Mass density=538.17 kg/m3	282.4
488.19 K, Mass density=538.17 kg/m3	287.74
488.39 K, Mass density=538.17 kg/m3	290.63
489.53 K, Mass density=538.17 kg/m3	283.44
489.73 K, Mass density=538.17 kg/m3	289.07
489.92 K, Mass density=538.17 kg/m3	294.19
490.11 K, Mass density=538.17 kg/m3	289.3
490.87 K, Mass density=538.17 kg/m3	282.03
491.06 K, Mass density=538.17 kg/m3	283.07
491.45 K, Mass density=538.17 kg/m3	285.52
491.64 K, Mass density=538.17 kg/m3	290.85
491.83 K, Mass density=538.17 kg/m3	286.92
492.02 K, Mass density=538.17 kg/m3	283.07
492.21 K, Mass density=538.17 kg/m3	281.44
492.4 K, Mass density=538.17 kg/m3	282.18
492.59 K, Mass density=538.17 kg/m3	258.31
492.78 K, Mass density=538.17 kg/m3	240.45
492.97 K, Mass density=538.17 kg/m3	211.02
493.16 K, Mass density=538.17 kg/m3	211.77
493.36 K, Mass density=538.17 kg/m3	215.03
493.55 K, Mass density=474.07 kg/m3	293.52
493.55 K, Mass density=538.17 kg/m3	215.03
493.74 K, Mass density=474.07 kg/m3	285.37
493.93 K, Mass density=474.07 kg/m3	291.3
494.12 K, Mass density=474.07 kg/m3	294.26
494.31 K, Mass density=474.07 kg/m3	297.97
494.5 K, Mass density=474.07 kg/m3	291.3
494.69 K, Mass density=474.07 kg/m3	288.33
494.88 K, Mass density=474.07 kg/m3	272.77
495.07 K, Mass density=474.07 kg/m3	277.21
495.26 K, Mass density=474.07 kg/m3	272.77
495.45 K, Mass density=474.07 kg/m3	279.44
501.71 K, Mass density=76.44 kg/m3	522.04
501.9 K, Mass density=76.44 kg/m3	509.29
502.09 K, Mass density=76.44 kg/m3	497.21
502.28 K, Mass density=76.44 kg/m3	502.03
502.46 K, Mass density=76.44 kg/m3	499.06
502.65 K, Mass density=76.44 kg/m3	495.28
502.84 K, Mass density=76.44 kg/m3	491.43
503.03 K, Mass density=76.44 kg/m3	490.83
503.22 K, Mass density=76.44 kg/m3	487.05
503.41 K, Mass density=76.44 kg/m3	488.98
503.6 K, Mass density=76.44 kg/m3	491.8
503.97 K, Mass density=76.44 kg/m3	497.73
504.16 K, Mass density=76.44 kg/m3	500.54
504.35 K, Mass density=76.44 kg/m3	512.25
504.54 K, Mass density=76.44 kg/m3	524.04
504.73 K, Mass density=76.44 kg/m3	551.69
504.92 K, Mass density=76.44 kg/m3	530.27
505.11 K, Mass density=76.44 kg/m3	521.82
505.29 K, Mass density=76.44 kg/m3	499.58
505.48 K, Mass density=76.44 kg/m3	412.34
505.67 K, Mass density=76.44 kg/m3	315.91
505.86 K, Mass density=76.44 kg/m3	251.94
506.05 K, Mass density=76.44 kg/m3	248.83
510.37 K, Mass density=474.07 kg/m3	291.3
510.55 K, Mass density=474.07 kg/m3	290.56
510.74 K, Mass density=474.07 kg/m3	293.52
510.93 K, Mass density=474.07 kg/m3	293.52
511.49 K, Mass density=474.07 kg/m3	292.04
511.68 K, Mass density=474.07 kg/m3	295
511.87 K, Mass density=474.07 kg/m3	292.78
512.43 K, Mass density=474.07 kg/m3	296.49
512.61 K, Mass density=474.07 kg/m3	295.75
512.8 K, Mass density=474.07 kg/m3	295.75
513.18 K, Mass density=95.93 kg/m3	639
513.36 K, Mass density=95.93 kg/m3	647.6
513.36 K, Mass density=474.07 kg/m3	281.66
513.55 K, Mass density=95.93 kg/m3	645.08
513.55 K, Mass density=474.07 kg/m3	293.52
513.74 K, Mass density=95.93 kg/m3	641.3
513.74 K, Mass density=474.07 kg/m3	293.52
513.92 K, Mass density=95.93 kg/m3	638.11
513.92 K, Mass density=474.07 kg/m3	295
514.11 K, Mass density=95.93 kg/m3	635.74
514.11 K, Mass density=474.07 kg/m3	289.82
514.3 K, Mass density=95.93 kg/m3	627.59
514.3 K, Mass density=474.07 kg/m3	283.14
514.48 K, Mass density=95.93 kg/m3	308.72
514.48 K, Mass density=474.07 kg/m3	295.75
514.67 K, Mass density=95.93 kg/m3	252.53
514.67 K, Mass density=474.07 kg/m3	285.37
514.86 K, Mass density=95.93 kg/m3	246.31
514.86 K, Mass density=474.07 kg/m3	291.3
515.04 K, Mass density=95.93 kg/m3	265.58
515.04 K, Mass density=474.07 kg/m3	286.85
515.23 K, Mass density=95.93 kg/m3	271.43
515.23 K, Mass density=474.07 kg/m3	240.9
515.42 K, Mass density=95.93 kg/m3	276.47
515.42 K, Mass density=474.07 kg/m3	230.52
515.6 K, Mass density=474.07 kg/m3	230.52
515.79 K, Mass density=95.93 kg/m3	198.72
515.79 K, Mass density=474.07 kg/m3	229.04
515.98 K, Mass density=95.93 kg/m3	206.28
515.98 K, Mass density=474.07 kg/m3	232.74
516.16 K, Mass density=95.93 kg/m3	200.65
516.35 K, Mass density=95.93 kg/m3	215.69
516.53 K, Mass density=95.93 kg/m3	229.41
516.53 K, Mass density=403.55 kg/m3	311.31
516.53 K, Mass density=474.07 kg/m3	220.14
516.72 K, Mass density=95.93 kg/m3	228.07
516.72 K, Mass density=403.55 kg/m3	309.83
516.72 K, Mass density=474.07 kg/m3	223.11
516.91 K, Mass density=95.93 kg/m3	243.71
516.91 K, Mass density=403.55 kg/m3	312.79
516.91 K, Mass density=474.07 kg/m3	221.62
516.91 K, Mass density=538.17 kg/m3	212.88
517.09 K, Mass density=95.93 kg/m3	203.61
517.09 K, Mass density=403.55 kg/m3	309.09
517.09 K, Mass density=474.07 kg/m3	222.36
517.09 K, Mass density=538.17 kg/m3	213.84
517.28 K, Mass density=95.93 kg/m3	224.96
517.28 K, Mass density=403.55 kg/m3	310.57
517.28 K, Mass density=538.17 kg/m3	214.06
517.47 K, Mass density=403.55 kg/m3	313.53
517.65 K, Mass density=403.55 kg/m3	309.09
520.44 K, Mass density=117 kg/m3	740.77
520.63 K, Mass density=117 kg/m3	732.54
520.81 K, Mass density=117 kg/m3	737.95
521 K, Mass density=117 kg/m3	726.1
521.18 K, Mass density=117 kg/m3	734.77
521.37 K, Mass density=117 kg/m3	723.58
521.55 K, Mass density=117 kg/m3	728.69
521.74 K, Mass density=117 kg/m3	715.2
521.74 K, Mass density=142.27 kg/m3	509.66
521.92 K, Mass density=117 kg/m3	709.42
521.92 K, Mass density=142.27 kg/m3	517.74
522.11 K, Mass density=117 kg/m3	639
522.11 K, Mass density=142.27 kg/m3	522.71
522.13 K, Mass density=117 kg/m3	606.09
522.15 K, Mass density=117 kg/m3	603.42
522.16 K, Mass density=117 kg/m3	599.35
522.18 K, Mass density=117 kg/m3	590.9
522.2 K, Mass density=117 kg/m3	590.9
522.22 K, Mass density=117 kg/m3	505.14
522.24 K, Mass density=117 kg/m3	408.41
522.26 K, Mass density=117 kg/m3	318.13
522.28 K, Mass density=117 kg/m3	304.49
522.3 K, Mass density=117 kg/m3	309.61
522.3 K, Mass density=142.27 kg/m3	521.45
522.31 K, Mass density=117 kg/m3	308.86
522.33 K, Mass density=117 kg/m3	298.12
522.35 K, Mass density=117 kg/m3	289.44
522.37 K, Mass density=117 kg/m3	280.77
522.39 K, Mass density=117 kg/m3	260.54
522.4 K, Mass density=117 kg/m3	247.05
522.42 K, Mass density=117 kg/m3	241.56
522.44 K, Mass density=117 kg/m3	241.56
522.46 K, Mass density=117 kg/m3	222.29
522.48 K, Mass density=117 kg/m3	221.62
522.48 K, Mass density=142.27 kg/m3	530.71
522.67 K, Mass density=117 kg/m3	241.78
522.67 K, Mass density=142.27 kg/m3	535.45
522.85 K, Mass density=117 kg/m3	245.27
522.85 K, Mass density=142.27 kg/m3	540.12
523.04 K, Mass density=117 kg/m3	242.75
523.04 K, Mass density=142.27 kg/m3	544.87
523.22 K, Mass density=117 kg/m3	224.14
523.22 K, Mass density=142.27 kg/m3	528.41
523.41 K, Mass density=117 kg/m3	213.62
523.41 K, Mass density=142.27 kg/m3	530.64
523.59 K, Mass density=142.27 kg/m3	531.67
523.78 K, Mass density=142.27 kg/m3	532.34
524.33 K, Mass density=142.27 kg/m3	531.23
524.52 K, Mass density=142.27 kg/m3	529.97
524.7 K, Mass density=142.27 kg/m3	534.05
524.89 K, Mass density=142.27 kg/m3	531.45
525.07 K, Mass density=142.27 kg/m3	529.6
525.26 K, Mass density=142.27 kg/m3	530.41
525.44 K, Mass density=142.27 kg/m3	530.93
525.63 K, Mass density=142.27 kg/m3	531.82
525.81 K, Mass density=142.27 kg/m3	537.01
525.99 K, Mass density=142.27 kg/m3	538.94
527.1 K, Mass density=142.27 kg/m3	532.93
527.29 K, Mass density=142.27 kg/m3	536.64
